This is an account of results in PubChem BioAssay (NCI).

Some test systems named below: UACC-257 melanoma; CCRF-CEM leukemia; OVCAR-5 ovarian; HOP-92 NSCLC; SF-295 CNS; MCF7 breast; SR leukemia; BT-549 breast; NCI-H522 lung; EKVX NSCLC.
Common to all, as to assay: growth of human tumour cells (NCI), 48 h

Several values for one entry are separate records, joined by “and”; a condition that tells them apart may be missing. Identical values can stand only once.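 Tested at 5 concentrations; 48 h exposure; 96-well plates; endpoints linearly interpolated, else capped at highest concentration. GI50: concentration for 50% inhibition of growth. TGI: total growth inhibition.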 Bounds are passed on as bounds.

As for `N#C/C(=C\c1cc(O)c(O)c(O)c1)C(N)=O`, the TGI with UACC-257 melanoma was > 100 µM; in the test with CCRF-CEM leukemia, > 76.2 µM; in the test with OVCAR-5 ovarian, > 100 µM; with HOP-92 NSCLC, > 100 µM; with SF-295 CNS, > 100 µM; in the test on MCF7 breast, > 56 µM. The TGI in the test with SR leukemia was > 92.3 µM; with BT-549 breast it was > 100 µM; with NCI-H522 lung, > 100 µM; in the test with EKVX NSCLC it was > 100 µM.

Regarding `CNC(=O)ON(C(C)=O)C(=O)NC`, the TGI with UACC-257 melanoma was 159 µM; in the test on CCRF-CEM leukemia it was > 65.9 µM and 43 µM; with OVCAR-5 ovarian, 276 µM; with HOP-92 NSCLC, 64.4 µM; with SF-295 CNS it was 267 µM; in the test with MCF7 breast, 154 µM. For the same compound, the TGI in the test on SR leukemia is > 72.3 µM; in the test on BT-549 breast, 60.5 µM; in the test on NCI-H522 lung, 73.5 µM; with EKVX NSCLC, 241 µM. In addition, the GI50 was 20.1 µM and 6.17 µM in the test on CCRF-CEM leukemia; > 56 µM in the test with HOP-92 NSCLC; 7.31 µM in the test on SR leukemia; > 45.2 µM with BT-549 breast; 108 µM in the test on EKVX NSCLC.

As to `COC(=O)C1C(C(=O)O)C2(c3ccccc3)C(=O)C1(c1ccccc1)C(c1ccccc1)=C2c1ccccc1` (stereo not given), the GI50 is 19.6 µM in the test on UACC-257 melanoma; 11.7 µM with CCRF-CEM leukemia; 19.3 µM in the test on OVCAR-5 ovarian; 10.6 µM with HOP-92 NSCLC; 22.9 µM in the test with SF-295 CNS; 19.6 µM in the test with MCF7 breast. For the same compound, the GI50 is 23.8 µM in the test on SR leukemia, 18 µM in the test on BT-549 breast, 16 µM with NCI-H522 lung and 18.8 µM with EKVX NSCLC. Moreover, the TGI with UACC-257 melanoma came out at 40.9 µM; with CCRF-CEM leukemia, 33.6 µM; in the test on OVCAR-5 ovarian, 35.3 µM; in the test on HOP-92 NSCLC, 30.9 µM; in the test on SF-295 CNS, 71.2 µM; in the test with MCF7 breast, 37.6 µM. The TGI in the test with SR leukemia was found to be 56.6 µM; with BT-549 breast, 37.6 µM; in the test on NCI-H522 lung, 34.1 µM; with EKVX NSCLC it was 42.3 µM.

`COc1cccc2c1C(=O)c1c(O)c3c(c(O)c1C2=O)C[C@@](O)(/C(CO)=N/NC(=O)CCCCCN1C(=O)C=CC1=O)C[C@@H]3O[C@H]1C[C@H](N)[C@H](O)[C@H](C)O1`: the GI50 in the test on UACC-257 melanoma is 1.06 µM; in the test on CCRF-CEM leukemia, 0.334 µM; in the test on OVCAR-5 ovarian, 4.04 µM; in the test with HOP-92 NSCLC it was 0.27 µM; with SF-295 CNS, 0.404 µM; with MCF7 breast, 0.147 µM. For the same compound, the GI50 in the test with SR leukemia was 0.109 µM; in the test on BT-549 breast it was 1.21 µM; in the test with NCI-H522 lung, 0.56 µM; in the test on EKVX NSCLC, 3.1 µM. The TGI is 4.32 µM with UACC-257 melanoma; > 100 µM with CCRF-CEM leukemia; > 100 µM in the test with OVCAR-5 ovarian; 7.01 µM with HOP-92 NSCLC; 5.56 µM in the test with SF-295 CNS; > 100 µM in the test on MCF7 breast. Besides, the TGI with SR leukemia is > 100 µM; in the test with BT-549 breast it was 8.96 µM; in the test on NCI-H522 lung, 4.21 µM; in the test with EKVX NSCLC, > 75.9 µM.

On to `C=C1c2nc3ccccc3n2C=C(c2cccc(Cl)c2)N1Cc1ccc(OC)cc1`, for which the GI50 with UACC-257 melanoma was 5.64 µM; in the test with CCRF-CEM leukemia, 2.75 µM; in the test on OVCAR-5 ovarian, 5.84 µM; in the test on HOP-92 NSCLC, 2.36 µM; in the test on SF-295 CNS it was 1.42 µM; in the test with MCF7 breast, 0.331 µM. Besides, the GI50 in the test with SR leukemia is 0.274 µM; in the test with BT-549 breast it was 1.7 µM; in the test on NCI-H522 lung, 0.221 µM; with EKVX NSCLC, 1.07 µM. The TGI in the test on UACC-257 melanoma is > 100 µM; in the test on CCRF-CEM leukemia, > 23.3 µM; with OVCAR-5 ovarian, > 30.9 µM; in the test with HOP-92 NSCLC, > 82.4 µM; in the test with SF-295 CNS it was 6.91 µM; with MCF7 breast, > 39.4 µM. Also, the TGI in the test on SR leukemia was 1.31 µM; in the test with BT-549 breast, > 100 µM; in the test on NCI-H522 lung, 1.1 µM; in the test on EKVX NSCLC, 12.8 µM.

As to `NS(=O)(=O)c1ccc(N=Nc2ccc[nH]c2=O)cc1`, the TGI is > 100 µM in the test with UACC-257 melanoma; 74.6 µM with CCRF-CEM leukemia; > 100 µM in the test on OVCAR-5 ovarian; > 100 µM with HOP-92 NSCLC; > 100 µM in the test on SF-295 CNS; > 100 µM with MCF7 breast. In addition, the TGI in the test with SR leukemia, in the test on BT-549 breast, with NCI-H522 lung and with EKVX NSCLC was > 100 µM each time.

Regarding `CCc1nc(C)cn1C(=O)OCc1nc2nc(Cl)nc(N3CCOCC3)c2[nH]1`, the GI50 with UACC-257 melanoma is 1.6 µM; in the test on CCRF-CEM leukemia, 0.302 µM; with OVCAR-5 ovarian it was 1.44 µM; in the test on HOP-92 NSCLC, 0.88 µM; in the test on SF-295 CNS it was 2.79 µM; with MCF7 breast, 0.633 µM. Also, the GI50 in the test with SR leukemia is 0.288 µM; in the test with BT-549 breast, 1.55 µM; with NCI-H522 lung, 1.37 µM; with EKVX NSCLC, 1.43 µM. In addition, the TGI in the test with UACC-257 melanoma was 3.26 µM; in the test with CCRF-CEM leukemia, 1.19 µM; in the test on OVCAR-5 ovarian, 2.99 µM; in the test on HOP-92 NSCLC, 2.41 µM; in the test on SF-295 CNS, 11.7 µM; in the test on MCF7 breast it was 2.44 µM. The TGI with SR leukemia is > 100 µM; in the test on BT-549 breast, 4.26 µM; with NCI-H522 lung it was 3.37 µM; with EKVX NSCLC, 3.07 µM.
